Experimental data published in publication PMC3348135, “Identification of New Agonists and Antagonists of the Insect Odorant Receptor Co-Receptor Subunit” (PLoS ONE, 2012).

How the values were obtained:
Agam\Orco + Agam\Or65 = biological target: T1, Agam\Orco + Agam\Or65 (Anopheles gambiae, UniProt Q7QCC7); assay: Inhibition of odorant (eugenol) activation of Agam\Orco + Agam\Or65 in Xenopus oocytes; assay type: cell-based, A. gambiae; settings: 100 nM eugenol; OLC compound 100 µM
T1 construct: expressed in transfected cells; host or cells: Xenopus laevis oocytes (cRNA injection; vectors pSP64T-Oligo and pT7TS)
T1 sequence (Q7QCC7 1-478): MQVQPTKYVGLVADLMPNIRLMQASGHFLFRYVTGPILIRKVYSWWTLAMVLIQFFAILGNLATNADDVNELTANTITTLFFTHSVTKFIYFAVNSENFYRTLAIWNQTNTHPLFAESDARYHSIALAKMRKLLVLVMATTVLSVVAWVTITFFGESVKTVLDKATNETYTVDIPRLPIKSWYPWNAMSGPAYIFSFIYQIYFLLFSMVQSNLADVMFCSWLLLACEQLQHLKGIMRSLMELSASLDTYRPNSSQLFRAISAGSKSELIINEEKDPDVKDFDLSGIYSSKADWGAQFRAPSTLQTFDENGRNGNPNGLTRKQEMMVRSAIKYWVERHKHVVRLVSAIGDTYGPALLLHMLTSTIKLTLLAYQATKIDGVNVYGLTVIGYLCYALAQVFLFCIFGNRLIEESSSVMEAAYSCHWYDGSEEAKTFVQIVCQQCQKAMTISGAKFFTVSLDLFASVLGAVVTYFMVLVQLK

Dmel\Orco + Dmel\Or35a = biological target: T2, Dmel\Orco + Dmel\Or35a (Drosophila melanogaster, UniProt Q9VNB5); assay: Inhibition of odorant (hexanol) activation of Dmel\Orco + Dmel\Or35a in Xenopus oocytes; assay type: cell-based; settings: 3 µM hexanol; OLC2 100 µM, OLC15 50 µM, OLC20 200 µM
T2 construct: expressed in transfected cells; host or cells: Xenopus laevis oocytes (cRNA injection, pGEMHE)
T2 sequence (Q9VNB5 1-486): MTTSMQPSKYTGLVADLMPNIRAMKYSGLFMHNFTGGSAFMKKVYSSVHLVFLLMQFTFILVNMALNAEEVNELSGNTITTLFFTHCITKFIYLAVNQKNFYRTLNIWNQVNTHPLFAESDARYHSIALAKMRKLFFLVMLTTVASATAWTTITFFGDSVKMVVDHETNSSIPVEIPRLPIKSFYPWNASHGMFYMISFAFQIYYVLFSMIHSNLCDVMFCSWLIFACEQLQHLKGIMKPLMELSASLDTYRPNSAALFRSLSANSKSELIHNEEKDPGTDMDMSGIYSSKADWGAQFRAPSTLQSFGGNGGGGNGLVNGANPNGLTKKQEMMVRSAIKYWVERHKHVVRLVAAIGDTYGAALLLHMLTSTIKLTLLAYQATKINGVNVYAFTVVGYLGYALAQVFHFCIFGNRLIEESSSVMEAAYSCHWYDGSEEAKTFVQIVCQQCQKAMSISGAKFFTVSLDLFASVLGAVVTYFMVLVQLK
T2 sequence (Q9V3Q2 1-409 partner): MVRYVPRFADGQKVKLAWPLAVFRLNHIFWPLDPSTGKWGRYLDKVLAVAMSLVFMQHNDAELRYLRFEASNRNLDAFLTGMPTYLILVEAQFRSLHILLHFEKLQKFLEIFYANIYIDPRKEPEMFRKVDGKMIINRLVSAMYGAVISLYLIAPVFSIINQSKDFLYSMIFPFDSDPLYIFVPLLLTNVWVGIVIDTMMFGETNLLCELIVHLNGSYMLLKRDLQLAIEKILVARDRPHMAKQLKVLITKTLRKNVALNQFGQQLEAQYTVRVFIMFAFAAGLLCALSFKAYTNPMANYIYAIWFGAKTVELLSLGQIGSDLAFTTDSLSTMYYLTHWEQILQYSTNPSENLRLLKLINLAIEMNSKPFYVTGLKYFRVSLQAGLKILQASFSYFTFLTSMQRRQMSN
Method: (§1) Oocytes were surgically removed from mature Xenopus laevis frogs. Follicle cells were removed by treatment with Collagenase B (Boehringer Mannhem) for 2 hours at room temperature. Capped cRNA encoding each DmOR subunit was generated using mMessage mMachine kits (Ambion). For heteromeric ORs, 25 ng of cRNA encoding each OR subunit was injected into Stage V-VI Xenopus oocytes. For expression of Orco alone, 50 ng of cRNA was injected. Oocytes were incubated at 18°C in Barth’s saline (in mM: 88 NaCl, 1 KCl, 2.4 NaHCO3, 0.3 CaNO3, 0.41 CaCl2, 0.82 MgSO4, 15 HEPES, pH 7.6, and 150 µg/ml ceftazidime) for 2–5 days prior to electrophysiological recording.
(§2) Odorant and Orco ligand induced currents were recorded under two-electrode voltage clamp in Xenopus laevis oocytes expressing ORs, using an automated parallel electrophysiology system (OpusExpress 6000A; Molecular Devices). Oocytes were perfused with ND96 (in mM: 96 NaCl, 2 KCl, 1 CaCl2, 1 MgCl2, 5 HEPES, pH 7.5). Odorant stock solutions (0.5 or 1 M) and Orco ligand stock solutions (100 mM) were prepared in DMSO and diluted in ND96. Unless otherwise noted, applications were for 60 sec at a flow rate of 1.0 ml/min, with extensive washing in ND96 (9 or 20 min at 4.6 ml/min) between applications. Micropipettes were filled with 3 M KCl and had resistances of 0.2−2.0 MΩ. The holding potential was −70 mV. Current responses, filtered (4-pole, Bessel, low pass) at 20 Hz (−3 db) and sampled at 100 Hz, were captured and stored using OpusXpress 1.1 software (Molecular Devices).
In inhibition assays, oocytes were exposed to 60 sec applications of OLC12 with 9 min washes between applications (Fig. 3 and 4) or 60 sec applications of odorant with 20 min washes between applications (Fig. 5). […]
(§3) Initial analysis of electrophysiological data was done using Clampfit 9.1 software (Molecular Devices). […] Statistical significance was assessed using a two-tailed unpaired t test, an F test, or a one-way analysis of variance followed by the Bonferroni’s post-test, as appropriate.

Onub\Orco + Onub\Or1 = assay: Inhibition of odorant (E12-14:OAc) activation of Onub\Orco + Onub\Or1 in Xenopus oocytes; assay type: cell-based, Ostrinia nubilalis; settings: OLC compound 100 µM
Method: as §1
Odorant and Orco ligand induced currents were recorded under two-electrode voltage clamp in Xenopus laevis oocytes expressing ORs, using an automated parallel electrophysiology system (OpusExpress 6000A; Molecular Devices). Oocytes were perfused with ND96 (in mM: 96 NaCl, 2 KCl, 1 CaCl2, 1 MgCl2, 5 HEPES, pH 7.5). Odorant stock solutions (0.5 or 1 M) and Orco ligand stock solutions (100 mM) were prepared in DMSO and diluted in ND96. […]
as §3

Dmel\Orco = biological target: T3, Dmel\Orco (Drosophila melanogaster, UniProt Q9VNB5); assay: Inhibition of OLC12 activation of Dmel\Orco in Xenopus oocytes; assay type: cell-based; settings: for IC50: activated by 30 µM OLC12 (EC39)
T3 construct: expressed in transfected cells; host or cells: Xenopus laevis oocytes (cRNA injection, pGEMHE)
T3 sequence (Q9VNB5 1-486): T2 sequence (Q9VNB5 1-486)
Method: as §1, §2
In inhibition assays, oocytes were exposed to 60 sec applications of OLC12 with 9 min washes between applications (Fig. 3 and 4) or 60 sec applications of odorant with 20 min washes between applications (Fig. 5). Oocytes were then exposed to a 90 sec application of antagonist candidate, immediately followed by a 60 sec co-application of antagonist candidate and OLC12 or odorant. Oocytes were then exposed to a final 60 sec application of OLC12 or odorant. The current response in the presence of antagonist candidate was compared to the preceding response(s) to OLC12 (or odorant) alone.
Initial analysis of electrophysiological data was done using Clampfit 9.1 software (Molecular Devices). Curve fitting and statistical analyses were done using Prism 5 (Graphpad). Concentration-response data were fit to the equation: I = Imax/(1+(EC50/X)^n) where I represents the current response at a given concentration of odorant, X; Imax is the maximal response; EC50 is the concentration of agonist yielding a half maximal response; n is the apparent Hill coefficient. Concentration-inhibition data were fit to the equation: I = Imax/(1+(X/IC50)^n) where I represents the current response at a given concentration of inhibitor, X; Imax is the maximal response in the absence of inhibitor; IC50 is the concentration of inhibitor present that still allows a half maximal response from odorant; n is the apparent Hill coefficient. Statistical significance was assessed using a two-tailed unpaired t test, an F test, or a one-way analysis of variance followed by the Bonferroni’s post-test, as appropriate.

## CCCCc1ccc(NC(=O)CSc2nnc(-c3ccccn3)n2CC)cc1 [OLC15]
Agam\Orco + Agam\Or65
  Inhibition of activation of Agam\Orco+Agam\Or65 by eugenol: inhibited
Dmel\Orco + Dmel\Or35a
  Inhibition of the hexanol response of Dmel\Orco+Dmel\Or35a: substantial inhibition
Onub\Orco + Onub\Or1
  Inhibition of activation of Onub\Orco+Onub\Or1 by E12-14:OAc: inhibited
Dmel\Orco
  IC50: 15 ± 2 µM

## CCc1ccc(NC(=O)CSc2nnc(-c3ccccn3)n2CC)cc1 [OLC2]
Agam\Orco + Agam\Or65
  Inhibition of activation of Agam\Orco+Agam\Or65 by eugenol: inhibited
Dmel\Orco + Dmel\Or35a
  Inhibition of the hexanol response of Dmel\Orco+Dmel\Or35a: did not inhibit
Onub\Orco + Onub\Or1
  Inhibition of activation of Onub\Orco+Onub\Or1 by E12-14:OAc: inhibited
Dmel\Orco; 100 µM compound co-applied with 30 µM OLC12
  Inhibition of activation of Dmel\Orco by 30 µM OLC12 on co-application: inhibits
Dmel\Orco
  IC50: 23 ± 3 µM
